Patent US10906915B2, “Substituted pyrazoloazepin-4-ones and their use as phosphodiesterase inhibitors” (LEO Pharma A/S, priority 2016, dated 2021)

The compounds below were run against human PDE4D catalytic domain (UniProt no. Q08499) (Homo sapiens (Human), UniProt Q08499) (assay: PDE4 assay (TR-FRET, FAM-cAMP cleavage)). Conditions: human PDE4D catalytic domain; molar concentration giving 50% inhibition of substrate cleavage; read-out: PDE4 IC50 range.
Format: biochemical
How it was run: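 PDE4D catalytic domain ([…]) was incubated with unlabelled cAMP plus FAM-cAMP and titrated compound, stopped with binding buffer of metal-ion nanoparticles and Tb donor. AMP generation read by TR-FRET; IC50 as 50% inhibition of cleavage versus controls, reported as nM ranges.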

human PDE4D catalytic domain, sequence (Q08499 380-740 limits assumed): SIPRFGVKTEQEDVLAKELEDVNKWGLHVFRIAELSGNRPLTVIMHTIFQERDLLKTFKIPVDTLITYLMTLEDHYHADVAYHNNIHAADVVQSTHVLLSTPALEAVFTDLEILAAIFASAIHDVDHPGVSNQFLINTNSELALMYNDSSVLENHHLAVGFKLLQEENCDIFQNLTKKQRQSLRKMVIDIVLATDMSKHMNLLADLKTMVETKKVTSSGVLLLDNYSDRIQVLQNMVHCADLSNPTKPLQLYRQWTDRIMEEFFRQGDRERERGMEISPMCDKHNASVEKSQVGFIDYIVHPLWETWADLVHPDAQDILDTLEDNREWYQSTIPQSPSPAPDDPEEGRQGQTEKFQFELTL

Question: For `CCc1nn(C[C@@H](C)COC(=O)c2ccc(C(F)(F)F)cc2)c2c1C(=O)NCC1(CCOCC1)C2` [Example 212, [(2R)-3-(3-ethyl-4-oxo-spiro[6,8-dihydro-5H-pyrazolo[4,3-c]azepine-7,4′-tetrahydropyran]-1-yl)-2-methyl-propyl] 4-(trifluoromethyl)benzoate], which IC50 is on record?
Answer: < 100 nM

Question: With `CCc1nn(CCCOC(=O)c2cccc(F)c2)c2c1C(=O)NCC1(CCOCC1)C2` [Example 18, 3-(3-ethyl-4-oxo-spiro[6,8-dihydro-5H-pyrazolo[4,3-c]azepine-7,4′-tetrahydropyran]-1-yl)propyl 3-fluorobenzoate] as the compound, how does the IC50 read?
Answer: < 100 nM

Question: Which IC50 does the source give for `CCc1ccc(C(=O)OCCCn2nc(CC)c3c2CC2(CCOCC2)CNC3=O)cc1` [Example 2, 3-(3-Ethyl-4-oxo-spiro[6,8-dihydro-5H-pyrazolo[4,3-c]azepine-7,4′-tetrahydropyran]-1-yl)propyl 4-ethylbenzoate] here?
Answer: < 100 nM

Question: `CCc1nn(CCCOC(=O)c2ccccc2C(F)(F)F)c2c1C(=O)NCC1(CCOCC1)C2` [Example 95, 3-(3-ethyl-4-oxo-spiro[6,8-dihydro-5H-pyrazolo[4,3-c]azepine-7,4′-tetrahydropyran]-1-yl)propyl 2-(trifluoromethyl)benzoate] was tested. Which IC50 did it give?
Answer: < 100 nM

Question: With `CCc1nn(C[C@@H](C)COC(=O)c2cccc(S(=O)(=O)C(C)C)c2)c2c1C(=O)NCC1(CCOCC1)C2` [Example 242, [(2R)-3-(3-ethyl-4-oxo-spiro[6,8-dihydro-5H-pyrazolo[4,3-c]azepine-7,4′-tetrahydropyran]-1-yl)-2-methyl-propyl] 3-isopropylsulfonylbenzoate] as the compound, how does the IC50 read?
Answer: < 100 nM

Question: `CCc1nn(CCCOC(=O)c2ccc(Cl)c(C(F)(F)F)c2)c2c1C(=O)NCC1(CCOCC1)C2` [Example 122, 3-(3-ethyl-4-oxo-spiro[6,8-dihydro-5H-pyrazolo[4,3-c]azepine-7,4′-tetrahydropyran]-1-yl)propyl 4-chloro-3-(trifluoromethyl)benzoate] was tested. Which IC50 did it give?
Answer: < 100 nM

Question: Which IC50 does the source give for `CCc1nn(CCCOC(=O)c2ccc(C(=O)N3CCOCC3)cc2)c2c1C(=O)NCC1(CCOCC1)C2` [Example 147, 3-(3-ethyl-4-oxo-spiro[6,8-dihydro-5H-pyrazolo[4,3-c]azepine-7,4′-tetrahydropyran]-1-yl)propyl 4-(morpholine-4-carbonyl)benzoate] here?
Answer: 100 to 500 nM

Question: For `CCc1nn(C[C@@H](C)COC(=O)c2ccc(C)cc2F)c2c1C(=O)NCC1(CCOCC1)C2` [Example 172, [(2R)-3-(3-ethyl-4-oxo-spiro[6,8-dihydro-5H-pyrazolo[4,3-c]azepine-7,4′-tetrahydropyran]-1-yl)-2-methyl-propyl] 2-fluoro-4-methyl-benzoate], which IC50 is on record?
Answer: < 100 nM

Question: For `CCc1nn(C[C@@H](C)COC(=O)c2ccc(C(F)(F)F)c(C(F)(F)F)c2)c2c1C(=O)NCC1(CCOCC1)C2` [Example 247, [(2R)-3-(3-ethyl-4-oxo-spiro[6,8-dihydro-5H-pyrazolo[4,3-c]azepine-7,4′-tetrahydropyran]-1-yl)-2-methyl-propyl] 3,4-bis(trifluoromethyl)benzoate], which IC50 is on record?
Answer: < 100 nM

Question: How did the IC50 turn out when `CCc1nn(CCCOC(=O)c2cccc(Cl)c2)c2c1C(=O)NCC1(CCOCC1)C2` [Example 41, 3-(3-ethyl-4-oxo-spiro[6,8-dihydro-5H-pyrazolo[4,3-c]azepine-7,4′-tetrahydropyran]-1-yl)propyl 3-chlorobenzoate] was run?
Answer: < 100 nM

Question: How did the IC50 turn out when `CCc1nn(C[C@@H](C)COC(=O)c2cc(OC)ccc2C(F)(F)F)c2c1C(=O)NCC1(CCOCC1)C2` [Example 231, [(2R)-3-(3-ethyl-4-oxo-spiro[6,8-dihydro-5H-pyrazolo[4,3-c]azepine-7,4′-tetrahydropyran]-1-yl)-2-methyl-propyl] 5-methoxy-2-(trifluoromethyl)benzoate] was run?
Answer: < 100 nM

Question: How did the IC50 turn out when `CCNC(=O)c1ccc(C(=O)OC[C@H](C)Cn2nc(CC)c3c2CC2(CCOCC2)CNC3=O)cc1` [Example 254, [(2R)-3-(3-ethyl-4-oxo-spiro[6,8-dihydro-5H-pyrazolo[4,3-c]azepine-7,4′-tetrahydropyran]-1-yl)-2-methyl-propyl] 4-(ethylcarbamoyl)benzoate] was run?
Answer: < 100 nM

Question: `CCc1nn(CCCOC(=O)c2ccc(C(C)=O)cc2)c2c1C(=O)NCC1(CCOCC1)C2` [Example 50, 3-(3-ethyl-4-oxo-spiro[6,8-dihydro-5H-pyrazolo[4,3-c]azepine-7,4′-tetrahydropyran]-1-yl)propyl 4-acetylbenzoate] was tested. Which IC50 did it give?
Answer: < 100 nM

Question: With `CCc1nn(CCCOC(=O)c2ccc(C(F)(F)F)c(C(F)(F)F)c2)c2c1C(=O)NCC1(CCOCC1)C2` [Example 136, 3-(3-ethyl-4-oxo-spiro[6,8-dihydro-5H-pyrazolo[4,3-c]azepine-7,4′-tetrahydropyran]-1-yl)propyl 3,4-bis(trifluoromethyl) benzoate] as the compound, how does the IC50 read?
Answer: < 100 nM

Question: How did the IC50 turn out when `CCc1nn(CCCOC(=O)c2cccc(C(F)(F)F)c2C)c2c1C(=O)NCC1(CCOCC1)C2` [Example 104, 3-(3-ethyl-4-oxo-spiro[6,8-dihydro-5H-pyrazolo[4,3-c]azepine-7,4′-tetrahydropyran]-1-yl)propyl 2-methyl-3-(trifluoromethyl)benzoate] was run?
Answer: < 100 nM

Question: With `CCc1nn(CCCOC(=O)c2ccc(F)cc2C(F)(F)F)c2c1C(=O)NCC1(CCOCC1)C2` [Example 109, 3-(3-ethyl-4-oxo-spiro[6,8-dihydro-5H-pyrazolo[4,3-c]azepine-7,4′-tetrahydropyran]-1-yl)propyl 4-fluoro-2-(trifluoromethyl)benzoate] as the compound, how does the IC50 read?
Answer: < 100 nM

Question: Which IC50 does the source give for `CCc1nn(CCCOC(=O)c2ccc(C(F)(F)F)cc2C(F)(F)F)c2c1C(=O)NCC1(CCOCC1)C2` [Example 135, 3-(3-ethyl-4-oxo-spiro[6,8-dihydro-5H-pyrazolo[4,3-c]azepine-7,4′-tetrahydropyran]-1-yl)propyl 2,4-bis(trifluoromethyl) benzoate] here?
Answer: < 100 nM

Question: Which IC50 does the source give for `CCc1nn(CCCOC(=O)c2ccc(Cl)c(OC)c2)c2c1C(=O)NCC1(CCOCC1)C2` [Example 87, 3-(3-ethyl-4-oxo-spiro[6,8-dihydro-5H-pyrazolo[4,3-c]azepine-7,4′-tetrahydropyran]-1-yl)propyl 4-chloro-3-methoxy-benzoate] here?
Answer: < 100 nM

Question: Which IC50 does the source give for `CCc1nn(C[C@@H](C)COC(=O)c2cc(F)ccc2Cl)c2c1C(=O)NCC1(CCOCC1)C2` [Example 200, [(2R)-3-(3-ethyl-4-oxo-spiro[6,8-dihydro-5H-pyrazolo[4,3-c]azepine-7,4′-tetrahydropyran]-1-yl)-2-methyl-propyl] 2-chloro-5-fluoro-benzoate] here?
Answer: < 100 nM

Same assay, conditions: read-out: PDE4 IC50 range

Question: How did the IC50 turn out when `CCc1nn(CC(C)(C)COC(=O)c2cccc(S(=O)(=O)N3CCOCC3)c2)c2c1C(=O)NCC1(CCOCC1)C2` [Example 323, [3-(3-ethyl-4-oxo-spiro[6,8-dihydro-5H-pyrazolo[4,3-c]azepine-7,4′-tetrahydropyran]-1-yl)-2,2-dimethyl-propyl] 3-morpholinosulfonylbenzoate] was run?
Answer: < 100 nM

Question: For `CCc1nn(CC(C)(C)COC(=O)c2ccc(S(=O)(=O)CC)cc2)c2c1C(=O)NCC1(CCOCC1)C2` [Example 312, [3-(3-ethyl-4-oxo-spiro[6,8-dihydro-5H-pyrazolo[4,3-c]azepine-7,4′-tetrahydropyran]-1-yl)-2,2-dimethyl-propyl] 4-ethylsulfonylbenzoate], which IC50 is on record?
Answer: < 100 nM

Question: With `CCc1nn(CC(C)(C)COC(=O)c2ccc(F)c(F)c2)c2c1C(=O)NCC1(CCOCC1)C2` [Example 294, [3-(3-ethyl-4-oxo-spiro[6,8-dihydro-5H-pyrazolo[4,3-c]azepine-7,4′-tetrahydropyran]-1-yl)-2,2-dimethyl-propyl] 3,4-difluorobenzoate] as the compound, how does the IC50 read?
Answer: < 100 nM

Question: `CCc1nn(CC(C)(C)COC(=O)c2ccc(S(=O)(=O)N(C)C)cc2)c2c1C(=O)NCC1(CCOCC1)C2` [Example 318, [3-(3-ethyl-4-oxo-spiro[6,8-dihydro-5H-pyrazolo[4,3-c]azepine-7,4′-tetrahydropyran]-1-yl)-2,2-dimethyl-propyl] 4-(dimethylsulfamoyl)benzoate] was tested. Which IC50 did it give?
Answer: < 100 nM

Question: With `CCc1nn(CC(C)(C)COC(=O)c2ccc(C(=O)NC(C)C)cc2)c2c1C(=O)NCC1(CCOCC1)C2` [Example 332, [3-(3-ethyl-4-oxo-spiro[6,8-dihydro-5H-pyrazolo[4,3-c]azepme-7,4′-tetrahydropyran]-1-yl)-2,2-dimethyl-propyl] 4-(isopropylcarbamoyl)benzoate] as the compound, how does the IC50 read?
Answer: < 100 nM

Question: `CCc1nn(CCCCOC(=O)c2ccc(S(=O)(=O)N(C)C)cc2)c2c1C(=O)NCC1(CCOCC1)C2` [Example 375, 4-(3-ethyl-4-oxo-spiro[6,8-dihydro-5H-pyrazolo[4,3-c]azepine-7,4′-tetrahydropyran]-1-yl)butyl 4-(dimethylsulfamoyl)benzoate] was tested. Which IC50 did it give?
Answer: 100 to 500 nM

Question: `CCc1nn(CC(C)(C)COC(=O)c2cccc(S(=O)(=O)NC)c2)c2c1C(=O)NCC1(CCOCC1)C2` [Example 313, [3-(3-ethyl-4-oxo-spiro[6,8-dihydro-5H-pyrazolo[4,3-c]azepine-7,4′-tetrahydropyran]-1-yl)-2,2-dimethyl-propyl] 3-(methylsulfamoyl)benzoate] was tested. Which IC50 did it give?
Answer: < 100 nM

Question: Which IC50 does the source give for `CCc1nn(CC(C)(C)COC(=O)c2cccc(S(C)(=O)=O)c2)c2c1C(=O)NCC1(CCOCC1)C2` [Example 305, [3-(3-ethyl-4-oxo-spiro[6,8-dihydro-5H-pyrazolo[4,3-c]azepine-7,4′-tetrahydropyran]-1-yl)-2,2-dimethyl-propyl] 3-methylsulfonylbenzoate] here?
Answer: < 100 nM

Question: `CCc1nn(CC(C)(C)COC(=O)c2ccc(S(N)(=O)=O)cc2)c2c1C(=O)NCC1(CCOCC1)C2` [Example 309, [3-(3-ethyl-4-oxo-spiro[6,8-dihydro-5H-pyrazolo[4,3-c]azepine-7,4′-tetrahydropyran]-1-yl)-2,2-dimethyl-propyl] 4-sulfamoylbenzoate] was tested. Which IC50 did it give?
Answer: < 100 nM

Question: Which IC50 does the source give for `CCc1nn(CC(C)(C)COC(=O)C(CC)CC)c2c1C(=O)NCC1(CCOCC1)C2` [Example 282, [3-(3-ethyl-4-oxo-spiro[6,8-dihydro-5H-pyrazolo[4,3-c]azepine-7,4′-tetrahydropyran]-1-yl)-2,2-dimethyl-propyl] 2-ethylbutanoate] here?
Answer: < 100 nM
